Legend:
[1] = target: T1, Bombyx mori EcR (VP16 fusion, CVBE switch construct) (Bombyx mori, UniProt P49881); experiment: Z3 Assay (HEK-293 cells with CVBE and 6XEcRE LacZ, β-galactosidase reporter); conditions: for Fold Induction, Z3 Assay, 3.3 uM: 3.3 uM ligand; for Fold Induction, Z3 Assay, 3.3 uM / Fold Induction, Z3 Assay, 33 uM: ligand treated / DMSO treated cells; for Fold Induction, Z3 Assay, 3.3 uM / Fold Induction, Z3 Assay, 33 uM / EC50: average of two wells; for Fold Induction, Z3 Assay, 33 uM: 33 uM ligand; for Z3 assay Rel Max FI: maximum fold induction at any concentration relative to that of GS-E ligand; for Z3 assay Rel Max FI / EC50: HEK-293 Z3 cells; for EC50: read-out: Z3 assay EC50, β-galactosidase reporter
T1 sequence (P49881 86-606): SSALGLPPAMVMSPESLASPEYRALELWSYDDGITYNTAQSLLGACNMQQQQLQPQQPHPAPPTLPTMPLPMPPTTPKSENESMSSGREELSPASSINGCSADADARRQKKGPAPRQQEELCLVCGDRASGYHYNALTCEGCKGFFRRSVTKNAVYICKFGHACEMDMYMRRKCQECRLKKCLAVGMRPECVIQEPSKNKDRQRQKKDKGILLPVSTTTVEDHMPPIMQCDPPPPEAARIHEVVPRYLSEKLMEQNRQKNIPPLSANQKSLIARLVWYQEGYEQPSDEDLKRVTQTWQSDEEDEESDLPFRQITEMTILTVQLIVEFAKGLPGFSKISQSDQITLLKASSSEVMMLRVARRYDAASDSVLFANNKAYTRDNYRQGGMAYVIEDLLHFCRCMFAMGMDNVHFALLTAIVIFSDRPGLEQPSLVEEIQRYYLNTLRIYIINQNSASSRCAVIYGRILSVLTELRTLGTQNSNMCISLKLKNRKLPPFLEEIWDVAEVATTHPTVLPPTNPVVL
T1 sequence (P19793 1-462 partner): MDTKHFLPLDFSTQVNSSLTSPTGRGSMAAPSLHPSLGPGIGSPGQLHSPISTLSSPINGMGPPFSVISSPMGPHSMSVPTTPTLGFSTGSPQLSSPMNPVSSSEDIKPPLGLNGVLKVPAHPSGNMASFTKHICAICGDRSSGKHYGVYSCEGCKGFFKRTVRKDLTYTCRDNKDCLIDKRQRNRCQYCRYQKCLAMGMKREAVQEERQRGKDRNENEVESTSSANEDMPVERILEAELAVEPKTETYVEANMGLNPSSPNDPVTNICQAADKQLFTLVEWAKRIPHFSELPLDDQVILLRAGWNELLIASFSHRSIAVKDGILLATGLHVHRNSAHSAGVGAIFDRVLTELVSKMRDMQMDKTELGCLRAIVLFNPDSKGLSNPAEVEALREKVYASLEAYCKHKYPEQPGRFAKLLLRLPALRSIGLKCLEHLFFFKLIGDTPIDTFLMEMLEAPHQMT

[2] = target: GAL4 DBD-CfEcR(DEF)/VP16AD-MmRXRE (Choristoneura fumiferana, UniProt O77240); experiment: 13B3 Assay (CHO stable cell line, luciferase reporter); conditions: for Fold Induction, 13B3 Assay, 3.3 uM: 3.3 uM ligand; for Fold Induction, 13B3 Assay, 3.3 uM / Fold Induction, 13B3 Assay, 33 uM: RLU ligand treated / RLU DMSO treated cells; for Fold Induction, 13B3 Assay, 3.3 uM / Fold Induction, 13B3 Assay, 33 uM / EC50: average of two wells; for Fold Induction, 13B3 Assay, 33 uM: 33 uM ligand; for 13B3 assay Rel Max FI: maximum fold induction at any concentration relative to that of GS-E ligand, CHO 13B3 cells; for EC50: read-out: 13B3 EC50, CHO 13B3 stable cell line, luciferase reporter, 48 h
Summary of the method: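 Ligands dosed at 8 levels from 33 to 0.01 μM (DMSO stocks diluted 300-fold) onto the 13B3 CHO line carrying GAL4-DBD/CfEcR-DEF, VP16/MmRXR-DE and a GAL4-responsive luciferase gene.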

| SMILES | Fold Induction, Z3 Assay, 3.3 uM [1] | Fold Induction, Z3 Assay, 33 uM [1] | Z3 assay Rel Max FI [1] | EC50 [1] [µM] | Fold Induction, 13B3 Assay, 3.3 uM [2] | Fold Induction, 13B3 Assay, 33 uM [2] | 13B3 assay Rel Max FI [2] | EC50 [2] [µM] |
| --- | --- | --- | --- | --- | --- | --- | --- | --- |
| COc1cc(C)ccc1C(=O)N(NC(=O)c1cccc(OC)c1C)C(C)(C)C [RG-100769] | 1096 | 542 | 1.109 | 0.219 | 1014 | 386 | 0.685 | 0.337 |
| CCc1c(C(=O)NN(C(=O)c2cccc(C)c2)C(C)(C)C)ccc2c1OCCO2 [RG-101036] | 767 | 404 | 1.049 | 0.054 | 4582 | 908 | 0.545 | 0.223 |
| CCc1ccc(C(=O)NN(C(=O)c2ccccc2[N+](=O)[O-])C(C)(C)C)cc1 [RG-101013] | 1039 | 846 | 0.720 | 1.48 | 1084 | 406 | 0.539 | 2.26 |
| CCc1ccc(C(=O)NN(C(=O)c2cc(C)cc(C)c2)C(C)C(C)(C)C)cc1 (stereo not shown) [RG-103451] | 67 | 118 | 1.054 | 0.083 | 576 | 661 | 0.742 | 0.208 |
| COc1cccc(C(=O)NN(C(=O)c2ccc(Cl)cc2F)C(C)(C)C)c1C [RG-100929] | – | 490 | – | 0.631 | – | 359 | – | – |
| Cc1cc(C)cc(C(=O)N(NC(=O)c2ccc3c(c2)COCO3)C(C)(C)C)c1 [RG-101016] | – | 394 | – | 2 | – | 4693 | – | – |
| CCc1ccc(C(=O)NN(C(=O)c2cc(C)cc(Cl)c2)C(C)(C)C)cc1 [RG-101774] | 631 | 429 | 0.943 | 0.155 | 987 | 526 | 0.657 | 0.327 |
| COc1ccc(C(=O)NN(C(=O)c2ccc(F)cc2Cl)C(C)(C)C)cc1 [RG-101057] | 632 | 930 | 0.697 | 4.47 | 33 | 842 | 0.569 | 4.97 |
| COc1cccc(C(=O)NN(C(=O)c2cc(Cl)cc(Br)c2)C(C)(C)C)c1C [RG-101408] | 780 | 398 | 1.118 | 0.148 | – | 326 | – | – |
| COc1cc(C(=O)N(NC(=O)c2cccc(OC)c2C)C(C)(C)C)ccc1C [RG-100768] | 1246 | 425 | 1.129 | 0.214 | – | 709 | – | – |
| COc1cccc(C(=O)NN(C(=O)c2cccnc2Cl)C(C)(C)C)c1C [RG-100127] | – | 245 | – | 4.68 | – | 365 | – | – |
| Cc1cc(C)cc(C(=O)N(NC(=O)c2cc3c(cc2C)OCO3)C(C)(C)C)c1 [RG-101088] | – | 302 | – | 4.07 | – | 1400 | – | – |
| CCc1c(OC)cccc1C(=O)NN(C(=O)c1cc(OC)cc(OC)c1)C(C)(C)C [RG-100778] | – | 365 | 1.000 | 0.513 | – | 2344 | – | – |
| CCc1ccc(C(=O)NN(C(=O)c2cc(C)cc(C)c2)C(C)(C)C)cc1Cl [RG-101864] | 796 | 494 | 1.075 | 0.245 | 5959 | 349 | 0.460 | 0.288 |
| CCc1c(OC)cccc1C(=O)NN(C(=O)c1ccc(Cl)cc1OC)C(C)(C)C [RG-101218] | 886 | 398 | 0.998 | 0.316 | – | 1983 | – | – |
| CCc1ccc(C(=O)NN(C(=O)c2ccccc2CC)C(C)(C)C)cc1 [RG-102592] | 746 | 574 | 0.699 | 3.89 | 194 | 909 | 0.684 | 4.92 |
| Cc1cc(C)cc(C(=O)N(NC(=O)c2ccc(CC#N)cc2)C(C)(C)C)c1 [RG-100875] | 1006 | 1081 | 0.818 | 2.04 | 23 | 1143 | 0.853 | 4.02 |
| CCc1cccc(C(=O)NN(C(=O)c2cc(C)cc(C)c2)C(C)(C)C)c1C [RG-101691] | 654 | 1089 | 1.068 | 0.174 | 5245 | 630 | 0.918 | 0.406 |
| COc1cccc(C(=O)NN(C(=O)c2cc(C)cc(Br)c2)C(C)(C)C)c1C [RG-101353] | 530 | 439 | 1.078 | 0.107 | 1347 | 718 | 1.163 | 0.675 |
| COc1cccc(C(=O)NN(C(=O)c2cc(C)ccc2Cl)C(C)(C)C)c1Cl [RG-101248] | – | 375 | – | 1.45 | – | 415 | – | – |
| COCc1c(OC)cccc1C(=O)NN(C(=O)c1cc(C)cc(C)c1)C(C)(C)C [RG-115117] | 7 | – | 0.36 | 3.93 | 1 | – | 0 | > 50 |
| COc1ccccc1C(=O)N(NC(=O)c1ccc2c(c1C)OCOC2)C(C)(C)C [RG-100216] | – | 398 | – | 1.78 | – | 8037 | – | – |
| Cc1cc(C)cc(C(=O)N(NC(=O)c2ccc3c(c2)CCCC3)C(C)(C)C)c1 [RG-101887] | 1004 | 334 | 0.930 | 0.257 | 2462 | 542 | 0.579 | 0.861 |
| CC(C)(C)N(NC(=O)c1c(F)cccc1F)C(=O)c1cc(Cl)cc(Cl)c1 [RG-100801] | – | 153 | – | 0.891 | – | 16 | – | – |
| Cc1cc(C)cc(C(=O)N(NC(=O)c2ccc3c(c2Br)OCCO3)C(C)(C)C)c1 [RG-101340] | 866 | 432 | 1.126 | 0.234 | 675 | 879 | 0.364 | 0.106 |
| CC(=O)c1cccc(C(=O)NN(C(=O)c2cc(C)cc(C)c2)C(C)(C)C)c1C [RG-100814] | 410 | 1279 | – | 1.15 | 423 | 1151 | 0.843 | 37.9 |

From patent publication US9102648B1, “Bioavailable diacylhydrazine ligands for modulating the expression of exogenous genes via an ecdysone receptor complex” (Intrexon Corporation, priority 2003, dated 2015)
